Measured values as given in US20080039527A1, “Calixarenes as Inhibitors of Protein Kinase B” (Imperial College Innovations Ltd., priority 2003, published 2008).
Read-outs that look alike come from different tables or passages of the source.

Columns and labels:
[1] = Dilution of compounds into water (observed solubility)
Description: The monomer, dimer and trimer of compound 48/80 were received as synthesised from Macba Numbere at UCL.

[2] = system: PKB Ser473 phosphorylation; test: PKB Ser473 activation synergy experiments (Western blot, NIH3T3 cells primed with NCS); type: cell-based; conditions: for phosphorylation of PKB (Western blot 1, FIG. 1): NIH3T3 cells, 1% NCS 20 minutes then compound 15 minutes
Description: PKB is a protein downsteam effector of PI3K, and becomes phosphorylated on (residues required for its activity) in response to the activation of PI3K. Natal Calf Serum (NCS) is a stimulator of PI3K and thus subsequently results in PKB activation. Therefore the positive control used in experiments is 10% serum and a negative control used is provided with no serum at all.
Compound 48/80 is the condensation product of N-methyl-p-methoxyphenethylamine and formaldehyde and is a mixture of cationic amphiphiles of varying degrees of polymerisation.
In a typical method, NIH3T3 cells were grown in media (GibcoBRL) containing 10% NCS to near confluency in six well plates. The cells were starved using 0.5% serum for 2-3 days. The media was then removed and replaced with serum free media for 15 minutes. Subsequently, 1% NCS was added to reaction wells, and 0%, 1% and 10% NCS to control wells. After 20 minutes incubation, then compound was added, and the wells incubated for a further 15 minutes. Media was removed and sample buffer was added and the cells lysed, boiled, centrifuged.
Samples were subjected to gel electrophoresis by 10% SDS-PAGE and then Western blotted on to PVDF membrane (Biorad) according to standard protocols. Western blots were probed using primary antibodies against PKB purchased from New England Biolabs and secondary antibodies of goat anti-rabbit IgG coupled to horseradish peroxidase (Amersham). The membranes were then developed using a freshly prepared ECL solution according to standard protocols.

[3] = diluted into water initially, afterwards into DMSO

## Benzeneethanamine-3,3′-methylenebis(4-methoxy-N-methyl) dihydrochloride [dimer]
[1]; [3]
  solubility on dilution into water: solubility problems

## CNCCc1ccc(OC)cc1 [monomer, N-methyl-p-methoxyphenethylamine]
[1]; [3]
  solubility on dilution into water: solubility problems
[2]
  overall effect on PKB (conclusion from these studies): activating species
[2]; 5 μg/mL experiment, controls contain DMSO at 2.5%
  PKB Ser473 phosphorylation (Western blot 3): slight activation above control levels

## CNCCc1ccc(OC)c(Cc2cc(CCNC)cc(Cc3cc(CCNC)ccc3OC)c2OC)c1.Cl.Cl.Cl [trimer]
[1]
  solubility on dilution into water: solubility problems
[2]
  overall effect on PKB (conclusion from these studies): inhibiting species
[2]; 3 μg/mL
  phosphorylation of PKB (Western blot 1, FIG. 1): just below that of 1% serum activation
[2]; 6 μg/mL
  phosphorylation of PKB (Western blot 1, FIG. 1): almost completely inhibited
